Assays:
Assay in all cases: IO staining of colonies of beta-D-galactosidase positive/negative bacteria (Table IVb)
Type in all cases: cell-based
[1] = test system: Klebsiella pneumoniae 164; details: Klebsiella pneumoniae strain 164, b-gal +; 24 h on Nutrient Agar, 150 mg/l indicator, 100 mg/l IPTG; for C: Color of colonies: key: −: absent; +/−: weak; +: strong; ++: very strong; for G: Growth of colonies: key: −: absent; +/−: weak; +: strong; ++: very strong
[2] = test system: Serratia marcescens 40; details: Serratia marcescens strain 40, b-gal +; 24 h on Nutrient Agar, 150 mg/l indicator, 100 mg/l IPTG; for G: Growth of colonies: key: −: absent; +/−: weak; +: strong; ++: very strong
[3] = test system: Aeromonas hydrophila 292; details: Aeromonas hydrophila strain 292, b-gal +; 24 h on Nutrient Agar, 150 mg/l indicator, 100 mg/l IPTG; for G: Growth of colonies: key: −: absent; +/−: weak; +: strong; ++: very strong
[4] = test system: Bacillus subtilis 65; details: Bacillus subtilis strain 65, b-gal −; 24 h on Nutrient Agar, 150 mg/l indicator, 100 mg/l IPTG; for C: Color of colonies: key: −: absent; +/−: weak; +: strong; ++: very strong; for F: Fluorescence of colonies: key: −: absent; +/−: weak; +: strong; ++: very strong
[5] = test system: Streptococcus agalactiae 195; details: Streptococcus agalactiae strain 195, b-gal −; 24 h on Nutrient Agar, 150 mg/l indicator, 100 mg/l IPTG; for C: Color of colonies: key: −: absent; +/−: weak; +: strong; ++: very strong; for F: Fluorescence of colonies: key: −: absent; +/−: weak; +: strong; ++: very strong
[6] = test system: Staphylococcus saprophyticus 273; details: Staphylococcus saprophyticus strain 273, b-gal +; 24 h on Nutrient Agar, 150 mg/l indicator, 100 mg/l IPTG; for G: Growth of colonies: key: −: absent; +/−: weak; +: strong; ++: very strong
[7] = test system: Escherichia coli (O157:H7) 60; details: Escherichia coli (O157:H7) strain 60, b-gal +; 24 h on Nutrient Agar, 150 mg/l indicator, 100 mg/l IPTG
[8] = test system: Salmonella illa 73; details: Salmonella illa strain 73, b-gal +; 24 h on Nutrient Agar, 150 mg/l indicator, 100 mg/l IPTG; note: key: −: absent; +/−: weak; +: strong; ++: very strong
[9] = test system: Enterobacter aerogenes 242; details: Enterobacter aerogenes strain 242, b-gal +; 24 h on Nutrient Agar, 150 mg/l indicator, 100 mg/l IPTG; for C: Color of colonies: key: −: absent; +/−: weak; +: strong; ++: very strong; for G: Growth of colonies: key: −: absent; +/−: weak; +: strong; ++: very strong
[10] = test system: Salmonella bongori 81; details: Salmonella bongori strain 81, b-gal +; 24 h on Nutrient Agar, 150 mg/l indicator, 100 mg/l IPTG; for C: Color of colonies: key: −: absent; +/−: weak/variable; +: strong; for G: Growth of colonies: key: −: absent; +/−: weak; +: strong; ++: very strong
[11] = test system: Listeria monocytogenes (4b) 290; details: Listeria monocytogenes (4b) strain 290, b-gal −; 24 h on Nutrient Agar, 150 mg/l indicator, 100 mg/l IPTG; for C: Color of colonies: key: −: absent; +/−: weak; +: strong; ++: very strong; for F: Fluorescence of colonies: key: −: absent; +/−: weak; +: strong; ++: very strong
[12] = test system: Citrobacter freundii 181; details: Citrobacter freundii strain 181, b-gal +; 24 h on Nutrient Agar, 150 mg/l indicator, 100 mg/l IPTG; for C: Color of colonies: key: −: absent; +/−: weak; +: strong; ++: very strong; for G: Growth of colonies: key: −: absent; +/−: weak; +: strong; ++: very strong
[13] = test system: Staphylococcus aureus 2; details: Staphylococcus aureus strain 2, b-gal −, 24 h on Nutrient Agar, 150 mg/l indicator, 100 mg/l IPTG; for C: Color of colonies: footnote 2: S. aureus natural color; for F: Fluorescence of colonies: key: −: absent; +/−: weak; +: strong; ++: very strong
[14] = test system: Pseudomonas aeruginosa 168; details: Pseudomonas aeruginosa strain 168, b-gal −, 24 h on Nutrient Agar, 150 mg/l indicator, 100 mg/l IPTG; for F: Fluorescence of colonies: footnote 1: blue autofluorescence; for C: Color of colonies: key: −: absent; +/−: weak; +: strong; ++: very strong; for G: Growth of colonies: key: −: absent; +/−: weak; +: strong; ++: very strong
[15] = test system: Salmonella enteritidis 43; details: Salmonella enteritidis strain 43, b-gal −; 24 h on Nutrient Agar, 150 mg/l indicator, 100 mg/l IPTG; note: key: −: absent; +/−: weak; +: strong; ++: very strong
[16] = test system: Escherichia coli 270; details: Escherichia coli strain 270, b-gal +; 24 h on Nutrient Agar, 150 mg/l indicator, 100 mg/l IPTG; for C: Color of colonies: key: −: absent; +/−: weak; +: strong; ++: very strong; for G: Growth of colonies: key: −: absent; +/−: weak; +: strong; ++: very strong
[17] = test system: Enterobacter cloacae 245; details: Enterobacter cloacae strain 245, b-gal +; 24 h on Nutrient Agar, 150 mg/l indicator, 100 mg/l IPTG; for C: Color of colonies: key: −: absent; +/−: weak; +: strong; ++: very strong; for G: Growth of colonies: key: −: absent; +/−: weak; +: strong; ++: very strong
[18] = test system: Escherichia coli 61; details: Escherichia coli strain 61, b-gal +; 24 h on Nutrient Agar, 150 mg/l indicator, 100 mg/l IPTG; for C: Color of colonies: key: −: absent; +/−: weak; +: strong; ++: very strong; for G: Growth of colonies: key: −: absent; +/−: weak; +: strong; ++: very strong
[19] = test system: Staphylococcus intermedius 31; details: Staphylococcus intermedius strain 31, b-gal +; 24 h on Nutrient Agar, 150 mg/l indicator, 100 mg/l IPTG
[20] = test system: Shigella boydii 135; details: Shigella boydii strain 135, b-gal −; 24 h on Nutrient Agar, 150 mg/l indicator, 100 mg/l IPTG; note: key: −: absent; +/−: weak; +: strong; ++: very strong
[21] = test system: Shigella sonnei 133; details: Shigella sonnei strain 133, b-gal +/−; 24 h on Nutrient Agar, 150 mg/l indicator, 100 mg/l IPTG; for C: Color of colonies: key: −: absent; +/−: weak; +: strong; ++: very strong; for G: Growth of colonies: key: −: absent; +/−: weak; +: strong; ++: very strong

O=C(c1ccccc1)c1ccccc1-n1cc(O[C@@H]2O[C@H](CO)[C@H](O)[C@H](O)[C@H]2O)c2ccc(Cl)cc21 [Indicator I21a, 1-(2-Benzoylphenyl)-6-chloro-1H-indol-3-yl-beta-D-galactopyranoside]
+^1: F: Fluorescence of colonies [14]
++: C: Color of colonies [2] | C: Color of colonies [16]
+/−: G: Growth of colonies [4] | G: Growth of colonies [5] | C: Color of colonies [10] | F: Fluorescence of colonies [10] | G: Growth of colonies [11] | G: Growth of colonies [13] | C: Color of colonies [19] | F: Fluorescence of colonies [19] | G: Growth of colonies [19]
+: C: Color of colonies [1] | F: Fluorescence of colonies [1] | G: Growth of colonies [1] | F: Fluorescence of colonies [2] | G: Growth of colonies [2] | C: Color of colonies [3] | F: Fluorescence of colonies [3] | G: Growth of colonies [3] | C: Color of colonies [6] | F: Fluorescence of colonies [6] | G: Growth of colonies [6] | C: Color of colonies [7] | F: Fluorescence of colonies [7] | G: Growth of colonies [7] | G: Growth of colonies [8] | C: Color of colonies [9] | F: Fluorescence of colonies [9] | G: Growth of colonies [9] | G: Growth of colonies [10] | C: Color of colonies [12] | F: Fluorescence of colonies [12] | G: Growth of colonies [12] | G: Growth of colonies [14] | G: Growth of colonies [15] | F: Fluorescence of colonies [16] | G: Growth of colonies [16] | C: Color of colonies [17] | F: Fluorescence of colonies [17] | G: Growth of colonies [17] | C: Color of colonies [18] | F: Fluorescence of colonies [18] | G: Growth of colonies [18] | G: Growth of colonies [20] | C: Color of colonies [21] | F: Fluorescence of colonies [21] | G: Growth of colonies [21]
−: C: Color of colonies [4] | F: Fluorescence of colonies [4] | C: Color of colonies [5] | F: Fluorescence of colonies [5] | C: Color of colonies [8] | F: Fluorescence of colonies [8] | C: Color of colonies [11] | F: Fluorescence of colonies [11] | F: Fluorescence of colonies [13] | C: Color of colonies [13] | C: Color of colonies [14] | C: Color of colonies [15] | F: Fluorescence of colonies [15] | C: Color of colonies [20] | F: Fluorescence of colonies [20]

COc1ccc(C(=O)c2ccccc2-n2cc(O[C@@H]3O[C@H](CO)[C@H](O)[C@H](O)[C@H]3O)c3c(Cl)c(Br)ccc32)c(OC)c1 [Indicator I28a, 5-Bromo-4-chloro-1-[2-(2,4-dimethoxybenzoyl)phenyl]-1H-indol-3-yl-beta-D-galactopyranoside]
+^1: F: Fluorescence of colonies [14]
−: F: Fluorescence of colonies [2] | F: Fluorescence of colonies [3] | C: Color of colonies [4] | F: Fluorescence of colonies [4] | C: Color of colonies [5] | F: Fluorescence of colonies [5] | F: Fluorescence of colonies [6] | C: Color of colonies [8] | F: Fluorescence of colonies [8] | F: Fluorescence of colonies [10] | C: Color of colonies [11] | F: Fluorescence of colonies [11] | F: Fluorescence of colonies [13] | C: Color of colonies [13] | C: Color of colonies [14] | C: Color of colonies [15] | F: Fluorescence of colonies [15] | C: Color of colonies [20] | F: Fluorescence of colonies [20]
+: C: Color of colonies [1] | G: Growth of colonies [1] | G: Growth of colonies [2] | G: Growth of colonies [3] | G: Growth of colonies [6] | C: Color of colonies [7] | G: Growth of colonies [7] | G: Growth of colonies [8] | C: Color of colonies [9] | G: Growth of colonies [9] | G: Growth of colonies [10] | C: Color of colonies [12] | G: Growth of colonies [12] | G: Growth of colonies [14] | G: Growth of colonies [15] | G: Growth of colonies [16] | C: Color of colonies [17] | G: Growth of colonies [17] | C: Color of colonies [18] | G: Growth of colonies [18] | C: Color of colonies [19] | G: Growth of colonies [19] | G: Growth of colonies [20] | C: Color of colonies [21] | G: Growth of colonies [21]
++: C: Color of colonies [16]
+/−: F: Fluorescence of colonies [1] | C: Color of colonies [2] | C: Color of colonies [3] | G: Growth of colonies [4] | G: Growth of colonies [5] | C: Color of colonies [6] | F: Fluorescence of colonies [7] | F: Fluorescence of colonies [9] | C: Color of colonies [10] | G: Growth of colonies [11] | F: Fluorescence of colonies [12] | G: Growth of colonies [13] | F: Fluorescence of colonies [16] | F: Fluorescence of colonies [17] | F: Fluorescence of colonies [18] | F: Fluorescence of colonies [19] | F: Fluorescence of colonies [21]

Source: US8940909B2, “Indicator platform” (Biosynth AG, priority 2009, dated 2015)
